According to publication PMC6150735, “Molecular Docking-Based Design and Development of a Highly Selective Probe Substrate for UDP-glucuronosyltransferase 1A10” (Molecular Pharmaceutics, 2018):

Key:
human UGTs = experiment: Recombinant human UGT screen: glucuronidation rates across human UGTs; assay type: biochemical; conditions: 10 μM aglycone; other UGTs at very low rates
Method: Recombinant human UGTs 1A1, 1A3, 1A6, 1A7, 1A8, 1A9, 1A10, 2A1, 2A2, 2A3, 2B4, 2B10, 2B7, and 2B17 were produced, as His-tagged proteins, in baculovirus-infected insect cells as previously described.[37]−[39] The relative expression level of each of these recombinant UGTs was evaluated by immunodetection, using monoclonal antibody against the His-tag, as described elsewhere.[40] A numeric value of 1.0 was given to the expression level of UGT1A8 and the relative expression level of each of the other UGTs was related to this value. Normalized activities were obtained by dividing the glucuronidation rate values by the relative expression level of the tested UGT. In addition, UGTs 1A4, 2B10, and 2B15 were purchased from Corning Life Sciences (New York) and are marked, in Figure 5, with a “C” to indicate that they are commercial enzymes. The expression levels of the UGTs in the commercial samples could not be determined, so their protein concentration was used to calculate the reaction rate.
(§1) The incubation mixtures for glucuronidation assays contained 100 mM Tris-HCl buffer pH 7.4, 2.5 mM MgCl2, 0.5 mM UDPGA, recombinant UGT, or microsomes as the enzyme source and 0–15 μM of the test aglycone substrate. When the incubation mixtures contained microsomes, alamethicin was used at a final concentration of 12.5 μg/mL, but it was not included in the recombinant enzyme assays.[43] In the first experiments three negative control samples were tested, namely (i) without the substrate 7-hydroxycoumarin derivative, (ii) without the cofactor UDPGA, or (iii) without the enzyme source. In subsequent experiments, the control samples lacked the enzyme source since it gave the highest fluorescence background. Preliminary experiments were done under different conditions than most of the later assays, namely in 2.5 mL of 100 mM phosphate buffer pH 7.4, containing 500 μg pig liver microsomes, 1.0 μM compound 6 and 0.5 mM UDPGA, at room temperature. Fluorescence spectra (excitation 200–420 nm; emission 400–600 nm) or fluorescence decrease at 390 nm excitation and 460 nm emission, were measured in these preliminary experiments, using a Shimadzu RF-5000 spectrophotofluorometer.
Most of the glucuronidation assays were carried out in 96 multiwell plate format, and incubations were carried out in 100 μL and at 37 °C, in the presence of Tris–HCl buffer pH 7.4, UDPGA, and the tested 7-hydroxycoumarin derivative, at the indicated concentrations. Fluorescence decline in the multiwell plate experiments was monitored every other minute, for 40 min, using an excitation filter at 405 nm and detection at 460 nm, in a Victor2 1420 Multilabel counter (PerkinElmer, Life Sciences, Turku, Finland). The fluorescence values were transformed into molarity using the aglycone substrates for making the respective standard curves. Slopes of the substrate concentration decrease per minute were calculated using linear regression analysis, in which the linear part of the kinetic assay indicated the glucuronidation rate. Enzyme catalyzed glucuronidation rate was calculated by subtracting the blank value from the full reaction value. The intra-assay variability of the kinetic assays was 6% when compound 6 was used as the aglycone substrate. Kinetic analyses were also performed in the same 96 multiwell plates format, with excitation filter at 405 nm and detection at 460 nm, using 6–8 different substrate concentrations per substrate and two different protein concentrations for both the wild-type and mutant UGT1A10. The higher concentrations, 13.5 mg/L for UGT1A10 and 12.0 mg/L for the UGT1A10 mutant, were used when the substrates were HFC, compounds 4 and 6, whereas the lower protein concentrations, 6.75 and 6.0 mg/L for UGT1A10 and the mutant, respectively, were used when the substrates were compounds 1, 2, 3, and 5.

[1] = Excitation and emission fluorescence spectra of coumarin derivatives; assay type: physicochemical; parameters: dose or concentration left out as unconfirmed
Method: The absorbance spectra of 10 μM coumarin derivatives at 100 mM Tris–HCl pH 7.4 containing 10% dimethyl sulfoxide were measured using a Hitachi U-2000 Spectrophotometer (Tokyo, Japan). […] The excitation spectra was from 200 to 420 at 460 nm emission and the emission spectra was from 400 to 600 at 390 nm excitation (data in Supplementary Table S1 and Figures S1 and S2). The effect of pH on fluorescence intensity was determined at 405 nm excitation and 460 nm emission, in the presence of 1.5% trichloroacetic acid, 100 mM phosphate buffers at pH 5, 6, 7, 8, and 9, or 1.6 M glycine–NaOH pH 10.4.

[2] = target: T1, UGT1A10 mutant 1A10-H210M (Homo sapiens, UniProt Q9HAW8, H210M); experiment: Glucuronidation kinetics by UGT1A10 mutant 1A10-H210M (fluorescence decrease, 96-well plate); assay type: biochemical; conditions: mutant versus wild-type UGT1A10
T1 construct: His-tag; made in house; host or cells: baculovirus-infected SF9 insect cells
T1 sequence (Q9HAW8 26-530 H210M): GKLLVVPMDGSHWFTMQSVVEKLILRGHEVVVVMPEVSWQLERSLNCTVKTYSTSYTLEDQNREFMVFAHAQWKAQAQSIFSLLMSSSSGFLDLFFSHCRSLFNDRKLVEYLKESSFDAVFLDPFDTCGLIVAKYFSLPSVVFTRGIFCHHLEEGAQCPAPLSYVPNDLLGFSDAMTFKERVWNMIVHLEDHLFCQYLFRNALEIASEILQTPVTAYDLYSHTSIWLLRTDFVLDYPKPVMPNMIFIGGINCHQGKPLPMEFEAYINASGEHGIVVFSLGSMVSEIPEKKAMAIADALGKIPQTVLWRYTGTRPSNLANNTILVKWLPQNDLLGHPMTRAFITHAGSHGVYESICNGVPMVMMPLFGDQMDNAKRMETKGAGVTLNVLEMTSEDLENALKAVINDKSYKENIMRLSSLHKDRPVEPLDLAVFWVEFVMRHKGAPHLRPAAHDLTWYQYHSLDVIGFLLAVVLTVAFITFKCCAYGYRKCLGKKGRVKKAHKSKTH
Method: The UGT1A10 mutant 1A10-H210 M was prepared according to the QuikChange methodology, using the cloned UGT1A10 in pFastBac[42] as a template and the following two oligonucleotides:
The entire coding sequence of UGT1A10 in the mutant clone was sequenced, and subsequently, recombinant baculovirus was prepared and used to express the mutant enzyme in baculovirus-infected SF9 insect cells.
as §1, with “Preliminary experiments were done under different conditions than most of the later assays, namely in 2.5 mL of 100 mM phosphate buffer pH 7.4, containing 500 μg pig liver microsomes, 1.0 μM compound 6 and 0.5 mM UDPGA, at room temperature.” left out
Most of the glucuronidation assays were carried out in 96 multiwell plate format, and incubations were carried out in 100 μL and at 37 °C, in the presence of Tris–HCl buffer pH 7.4, UDPGA, and the tested 7-hydroxycoumarin derivative, at the indicated concentrations. Fluorescence decline in the multiwell plate experiments was monitored every other minute, for 40 min, using an excitation filter at 405 nm and detection at 460 nm, in a Victor2 1420 Multilabel counter (PerkinElmer, Life Sciences, Turku, Finland). The fluorescence values were transformed into molarity using the aglycone substrates for making the respective standard curves. […] Enzyme catalyzed glucuronidation rate was calculated by subtracting the blank value from the full reaction value. […]

With O=c1oc2cc(O)ccc2cc1-n1cncn1 [Compound 6, 7-Hydroxy-3-(1H-1,2,4-triazol-1-yl)-2H-chromen-2-one] the “Selectivity among human UGTs” value (human UGTs) was “selective for UGT1A10”, the “Fluorescence EMmax” value [1] was 494 nm and the “Fluorescence EXmax” value [1] was 396 nm. The “Change of Km by the H210M mutation (in words)” value [2] was “considerably increased”.
